Reference: PMC6277434, “Discovery of a potent HMG-CoA reductase degrader that eliminates statin-induced reductase accumulation and lowers cholesterol” (Nature Communications, 2018)
Where “and” joins values, the source holds several entries; their conditions need not be identical. Equal entries are not always repeated.

What was measured:
HMGCR (TM1-8)-GFP [1] = biological target: T1, HMGCR (TM1-8)-GFP (Cricetulus griseus, UniProt P00347); test: HMGCR (TM1-8)-GFP fluorescent assay (high-content imaging) in CHG cells; settings: for Mean (HMGCR (TM1-8)-GFP signal relative to 0 μM = 100): Figure 4 source data
T1 sequence (P00347 1-346): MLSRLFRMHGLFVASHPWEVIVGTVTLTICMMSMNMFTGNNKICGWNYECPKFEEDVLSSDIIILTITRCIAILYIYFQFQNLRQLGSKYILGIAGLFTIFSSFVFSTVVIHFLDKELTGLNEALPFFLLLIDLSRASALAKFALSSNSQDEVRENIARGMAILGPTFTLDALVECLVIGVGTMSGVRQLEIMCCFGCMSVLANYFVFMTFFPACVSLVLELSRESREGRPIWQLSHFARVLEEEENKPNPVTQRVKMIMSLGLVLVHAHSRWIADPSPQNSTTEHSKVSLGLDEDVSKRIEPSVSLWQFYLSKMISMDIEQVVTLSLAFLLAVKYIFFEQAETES

K89R/K248R HMGCR = biological target: T2, K89R/K248R HMGCR (Cricetulus griseus, UniProt P00347, K248R/K89R); test: Degradation of transfected K89R/K248R HMGCR in CHO-7 cells; format: cell-based; design: expressed in transfected cells; host or cells: CHO-7 (A20); settings: transfected CHO-7 cells, 5 h
T2 sequence (P00347 1-887 K89R/K248R): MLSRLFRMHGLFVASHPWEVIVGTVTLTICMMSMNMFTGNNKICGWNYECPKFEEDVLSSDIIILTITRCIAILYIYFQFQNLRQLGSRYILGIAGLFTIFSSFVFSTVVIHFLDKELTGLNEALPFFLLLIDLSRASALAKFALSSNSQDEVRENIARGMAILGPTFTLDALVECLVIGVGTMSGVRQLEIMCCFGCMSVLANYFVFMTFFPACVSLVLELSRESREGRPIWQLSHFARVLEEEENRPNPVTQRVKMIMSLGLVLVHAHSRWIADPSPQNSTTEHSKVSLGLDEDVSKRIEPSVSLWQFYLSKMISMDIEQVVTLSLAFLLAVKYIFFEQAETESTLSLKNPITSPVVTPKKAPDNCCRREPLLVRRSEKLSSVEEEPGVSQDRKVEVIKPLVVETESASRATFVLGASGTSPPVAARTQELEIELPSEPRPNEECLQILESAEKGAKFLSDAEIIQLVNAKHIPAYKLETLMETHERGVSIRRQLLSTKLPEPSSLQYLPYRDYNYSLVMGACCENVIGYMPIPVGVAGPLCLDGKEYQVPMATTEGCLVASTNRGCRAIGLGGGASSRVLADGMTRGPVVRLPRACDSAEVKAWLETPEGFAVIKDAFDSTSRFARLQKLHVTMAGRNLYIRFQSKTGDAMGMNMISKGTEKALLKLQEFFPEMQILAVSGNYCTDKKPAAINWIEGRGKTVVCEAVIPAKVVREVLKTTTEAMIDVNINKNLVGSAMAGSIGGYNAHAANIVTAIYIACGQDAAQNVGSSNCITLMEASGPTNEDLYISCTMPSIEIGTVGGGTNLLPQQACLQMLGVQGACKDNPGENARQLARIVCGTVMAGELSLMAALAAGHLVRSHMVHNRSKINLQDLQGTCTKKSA
Description: HMGCR protein of DMSO-treated cells was defined as 100. […] Lysates were immunoprecipitated and pellets were probed for anti-ubiquitin (P4D1) and anti-HMGCR (A9). e CHO-7 cells were transfected with indicated plasmids and treated as in d. Lysates were immunoprecipitated with anti-Flag M2 beads, and pellets were probed for anti-ubiquitin (HA) and anti-HMGCR (Flag). f CHO-7 cells were transfected with indicated plasmids, then treated with Cmpd 81 for 5 h. […] Data are from three independent experiments and presented as mean ± SD. Source data are provided as a Source Data File.
Cells were harvested and homogenized in the RIPA buffer (50 mM Tris-HCl, pH 8.0, 150 mM NaCl, 2 mM MgCl2, 1.5% NP-40, 0.1% SDS, and 0.5% sodium deoxycholate) supplemented with protease cocktail inhibitor, 10 μM MG-132, 10 μg ml^−1 leupeptin and 1 mM phenylmethylsulfonyl fluoride. The protein concentrations of lysates were determined using BCA method (Beyotime). […] Western blot images were captured by Amersham Imager 600 (GE Healthcare), and integrated optical intensities of each band were quantified by Image-Pro Plus 6 software (Media Cybernetics). […]

HMGCR (TM1-8)-GFP [2] = biological target: T1, HMGCR (TM1-8)-GFP
hERG potassium channel = hERG potassium channel (Homo sapiens, UniProt Q12809); test: hERG electrophysiology patch-clamp assay (CHO-hERG cells, QPatch); settings: even at 40 μM
hERG potassium channel, sequence (Q12809 whole entry): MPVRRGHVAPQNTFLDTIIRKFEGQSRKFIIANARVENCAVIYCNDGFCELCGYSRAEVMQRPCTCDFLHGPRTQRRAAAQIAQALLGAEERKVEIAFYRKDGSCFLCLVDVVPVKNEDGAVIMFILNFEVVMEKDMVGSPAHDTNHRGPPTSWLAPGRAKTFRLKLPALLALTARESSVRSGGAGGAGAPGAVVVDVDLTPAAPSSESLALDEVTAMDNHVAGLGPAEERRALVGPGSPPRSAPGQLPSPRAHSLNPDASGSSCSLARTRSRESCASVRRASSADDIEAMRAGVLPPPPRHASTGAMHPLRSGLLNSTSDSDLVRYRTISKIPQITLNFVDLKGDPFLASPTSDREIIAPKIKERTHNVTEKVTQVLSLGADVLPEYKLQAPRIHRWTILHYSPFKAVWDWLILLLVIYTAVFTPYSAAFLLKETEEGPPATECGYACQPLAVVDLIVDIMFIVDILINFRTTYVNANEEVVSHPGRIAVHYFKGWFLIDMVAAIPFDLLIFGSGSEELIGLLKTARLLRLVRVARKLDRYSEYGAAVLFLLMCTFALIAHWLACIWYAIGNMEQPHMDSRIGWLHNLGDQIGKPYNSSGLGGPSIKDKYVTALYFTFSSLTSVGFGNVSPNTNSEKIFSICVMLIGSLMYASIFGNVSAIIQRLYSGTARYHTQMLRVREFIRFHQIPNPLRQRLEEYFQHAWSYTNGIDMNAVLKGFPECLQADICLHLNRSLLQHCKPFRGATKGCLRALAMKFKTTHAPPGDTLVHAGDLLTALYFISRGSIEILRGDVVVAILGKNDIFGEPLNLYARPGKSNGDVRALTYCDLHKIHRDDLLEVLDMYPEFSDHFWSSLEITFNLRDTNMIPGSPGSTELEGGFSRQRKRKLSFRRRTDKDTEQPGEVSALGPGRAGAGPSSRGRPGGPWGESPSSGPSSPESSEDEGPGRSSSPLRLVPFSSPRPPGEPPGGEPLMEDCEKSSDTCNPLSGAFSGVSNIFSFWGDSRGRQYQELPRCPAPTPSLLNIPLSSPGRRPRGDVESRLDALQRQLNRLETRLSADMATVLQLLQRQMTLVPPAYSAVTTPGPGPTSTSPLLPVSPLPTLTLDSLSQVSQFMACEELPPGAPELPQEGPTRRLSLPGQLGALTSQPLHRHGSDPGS

Hmgcr mRNA = test: RT-qPCR of hepatic Hmgcr mRNA of gavaged mice; format: in vivo; settings: C57BL/6J mice, 60 mg/kg/day gavage once daily 7 days
Description: Cells were treated as described in corresponding figure legends, then total RNA was extracted from cells or mouse livers using TRI Reagent ([…], Sigma-Aldrich). Equal amounts of RNA from cells or mice receiving the same treatment were pooled were used for cDNA synthesis with oligo dT and reverse transcriptase MLV (Promega). Gene expression was analyzed by quantitative real-time PCR on a Stratagene […] Systems. The primers used were listed in Supplementary Tables 2-4. Male C57BL/6 mice (8-week-old) were obtained from Shanghai Laboratory Animal Company (SLAC) (Shanghai, China). Male Ldlr^-/- mice (8-week-old) were obtained from Nanjing Biomedical Research Institute of Nanjing University (Nanjing, China). […] Mice were maintained in a pathogen-free environment and kept on a 12-h light/dark schedule. Mice were gavaged as described in figure legends with saline containing 0.5% methyl cellulose and 0.5% Tween-80. All mice were used in accordance with the guidelines approved by the Institutional Animal Care and Use Committee of Wuhan University.

Structure (SMILES) | Mean (HMGCR (TM1-8)-GFP signal relative to 0 μM = 100) (HMGCR (TM1-8)-GFP [1]; compound 0.156 μM) | Mean (HMGCR (TM1-8)-GFP signal relative to 0 μM = 100) (HMGCR (TM1-8)-GFP [1]; compound 0.313 μM) | Mean (HMGCR (TM1-8)-GFP signal relative to 0 μM = 100) (HMGCR (TM1-8)-GFP [1]; compound 0.625 μM) | Mean (HMGCR (TM1-8)-GFP signal relative to 0 μM = 100) (HMGCR (TM1-8)-GFP [1]; compound 1.25 μM) | Mean (HMGCR (TM1-8)-GFP signal relative to 0 μM = 100) (HMGCR (TM1-8)-GFP [1]; compound 2.5 μM) | Mean (HMGCR (TM1-8)-GFP signal relative to 0 μM = 100) (HMGCR (TM1-8)-GFP [1]; compound 5 μM) | Mean (HMGCR (TM1-8)-GFP signal relative to 0 μM = 100) (HMGCR (TM1-8)-GFP [1]; compound 10 μM) | potency (EC50) relative to 24,25-DHL (HMGCR (TM1-8)-GFP [1]; more potent than 24,25-DHL) | potency (EC50) relative to cholesterol (HMGCR (TM1-8)-GFP [1]; more potent than cholesterol) | degradation of K89R/K248R HMGCR (K89R/K248R HMGCR) | DC50 (HMGCR (TM1-8)-GFP [2]) | inhibition of hERG peak tail currents (hERG potassium channel) | hepatic Hmgcr mRNA level, mean (Hmgcr mRNA; vehicle = 1) | hepatic Hmgcr mRNA level, single values (Hmgcr mRNA; vehicle = 1) | hepatic Hmgcr mRNA level, mean (Hmgcr mRNA; vehicle = 1, listed as lovastatin)
C=CCC(O)(CC=C)CCCC(C)C1CCC2C3C(O)C=C4C(C)(C)C(O)CCC4(C)C3CCC12C (stereo not drawn) [Cmpd 81] | 80.6979 | 58.3802 | 35.2515 | 17.0524 | 14.0516 | 2.6212 | 2.9162 | ~4 fold | approximately 74 fold | blunted the effect | 410 nM | no inhibition effect | – | – | –
CC[C@H](C)C(=O)O[C@H]1C[C@@H](C)C=C2C=C[C@H](C)[C@H](CC[C@@H]3C[C@@H](O)CC(=O)O3)[C@H]21 [Lovastatin, lovastatin] | – | – | – | – | – | – | – | – | – | – | – | – | 2.5 ± 0.2 fold and 2.537 fold | 2.5 and 2.78 and 2.33 | 2.5 fold
